Laboratory results taken from BindingDB's records for doi:10.1021/acsmedchemlett.8b00549 (Stellenbosch University, 2019).

What was measured:
[1] = Inhibition of HIV1 reverse transcriptase G190A mutant in HIV1 infected HEK293T cells harboring luciferase gene assessed as reduction in viral infection after 48 hrs by Bright-Glo luciferase assay
[2] = Inhibition of HIV1 reverse transcriptase V106M mutant in HIV1 infected HEK293T cells harboring luciferase gene assessed as reduction in viral infection after 48 hrs by Bright-Glo luciferase assay
[3] = Inhibition of wild-type HIV1 reverse transcriptase in HIV1 infected HEK293T cells harboring luciferase gene assessed as reduction in viral infection after 48 hrs by Bright-Glo luciferase assay
[4] = Inhibition of HIV1 reverse transcriptase Y181C mutant in HIV1 infected HEK293T cells harboring luciferase gene assessed as reduction in viral infection after 48 hrs by Bright-Glo luciferase assay
[5] = Inhibition of HIV1 reverse transcriptase Y188C mutant in HIV1 infected HEK293T cells harboring luciferase gene assessed as reduction in viral infection after 48 hrs by Bright-Glo luciferase assay
[6] = Inhibition of HIV1 reverse transcriptase Y188H mutant in HIV1 infected HEK293T cells harboring luciferase gene assessed as reduction in viral infection after 48 hrs by Bright-Glo luciferase assay
[7] = Inhibition of HIV1 reverse transcriptase K103N mutant in HIV1 infected HEK293T cells harboring luciferase gene assessed as reduction in viral infection after 48 hrs by Bright-Glo luciferase assay
[8] = Inhibition of HIV1 reverse transcriptase K103N/Y181C double mutant in HIV1 infected HEK293T cells harboring luciferase gene assessed as reduction in viral infection after 48 hrs by Bright-Glo luciferase assay

Structure (SMILES): Cn1c(=O)[nH]c2cccc(Oc3cc(Cl)cc(C#N)c3)c21
- IC50 [1]: 107 nM
- IC50 [2]: 494 nM
- IC50 [3]: 29 nM
- IC50 [4]: 55 nM
- IC50 [5]: 236 nM
- IC50 [6]: 74 nM
- IC50 [7]: 126 nM

Structure (SMILES): CCn1c(=O)[nH]c2cccc(Oc3cc(C#N)cc(/C=C/C#N)c3)c21
- IC50 [1]: 377 nM
- IC50 [2]: 926 nM
- IC50 [3]: 49 nM
- IC50 [4]: 73 nM
- IC50 [5]: 14 nM
- IC50 [6]: 468 nM
- IC50 [7]: 166 nM
- IC50 [8]: 51 nM

Structure (SMILES): CC1(C)OC(=O)Nc2cccc(Oc3cc(Cl)cc(C#N)c3)c21
- IC50 [1]: 2760 nM
- IC50 [2]: 630 nM
- IC50 [3]: 21 nM
- IC50 [4]: 28 nM
- IC50 [5]: 7 nM
- IC50 [6]: 1150 nM
- IC50 [7]: 798 nM
- IC50 [8]: 894 nM

Structure (SMILES): CCn1c(=O)[nH]c2cccc(Oc3cc(Cl)cc(C#N)c3)c21
- IC50 [1]: 126 nM
- IC50 [2]: 293 nM
- IC50 [3]: 26 nM
- IC50 [4]: 18 nM
- IC50 [5]: 7 nM
- IC50 [6]: 415 nM
- IC50 [7]: 111 nM
- IC50 [8]: 52 nM

Structure (SMILES): CCn1c(=O)[nH]c2cccc(Oc3ccccc3)c21
- IC50 [3]: 3880 nM

Structure (SMILES): CCC(c1ccccc1)n1c(=O)[nH]c2ccc(Cl)cc21 (stereo unspecified)
- IC50 [3]: 36 nM
- IC50 [4]: > 200 nM
- IC50 [7]: > 200 nM

Structure (SMILES): CCOC(=O)c1[nH]c2ccc(Cl)cc2c1C(SC)c1ccccc1 (stereo unspecified)
- IC50 [3]: 39 nM

Structure (SMILES): CCOC(=O)c1[nH]c2ccc(Cl)cc2c1C(OC)c1ccccc1 (stereo unspecified)
- IC50 [3]: 16 nM

Structure (SMILES): CCCn1c(=O)[nH]c2cccc(Oc3cc(Cl)cc(C#N)c3)c21
- IC50 [3]: 50 nM

Structure (SMILES): CCn1c(=O)[nH]c2cccc(Oc3ccnc(Cl)c3)c21
- IC50 [3]: > 44100 nM

Structure (SMILES): CCn1c(=O)[nH]c2cccc(Oc3cc(C#N)ccn3)c21
- IC50 [3]: 1360 nM

Structure (SMILES): CCOC(=O)c1[nH]c2ccc(Cl)cc2c1C(OC)c1cc(C)cc(C)c1 (stereo unspecified)
- IC50 [3]: 34 nM

Structure (SMILES): CCn1c(=O)[nH]c2cccc(Oc3cccc4ccccc34)c21
- IC50 [3]: 2270 nM

Structure (SMILES): CCOC(=O)c1[nH]c2ccc(Cl)cc2c1C(SC)c1cc(C)cc(C)c1 (stereo unspecified)
- IC50 [3]: 60 nM

Structure (SMILES): CCn1c(=O)[nH]c2cccc(Oc3ccnc(C#N)c3)c21
- IC50 [3]: 13300 nM

Structure (SMILES): CCn1c(=O)[nH]c2cccc(Oc3cc(C)cc(C)c3)c21
- IC50 [3]: 303 nM

Structure (SMILES): CCn1c(=O)[nH]c2cccc(Oc3cc(C#N)cc(C#N)c3)c21
- IC50 [3]: 63 nM
